Laboratory results published in patent publication US6548543B1, “Remedies or preventives containing cyclopentenone compounds as the active ingredient” (Takara Shuzo Co., Ltd., priority 1998, dated 2003).

How the values were obtained:
[1] = tested on: Mouse solid tumor Meth A; experiment: Mouse solid tumor Meth A, weight of cancer; format: in vivo, BALB/c mouse; settings: subcutaneous at tumor site for successive 5 days, after 2 weeks
Procedure: (2) Mouse solid tumor Meth A (2×10^6 cells/mouse) was subcutaneously injected into a back of a 8-weeks old female BALB/c mouse. Subsequently, dipropionylcyclopentenone was subcutaneously injected at the same site for successive 5 days. Saline was subcutaneously injected to a control group in a similar manner. Each group consisted of 8 mice.
After 2 weeks, the cancerous tissue formed in the back of the mouse was taken out and the weight of the tissue was measured.

[2] = tested on: Candida albicans TIMM0136; experiment: Antifungal activity, growth inhibition; format: cell-based; settings: 10 μl of solution at 100 or 500 μg/ml added to 100 μl culture; 30° C., 48 hours
Procedure: Dipropionylcyclopentenone, diisobutyrylcyclopentenone and di-2-hexenoylcyclopentenone were used to examine their antifungal activities against Candida albicans TIMM0136.
Candida albicans cells were cultured overnight in YNBG medium containing 0.67% Yeast Nitrogen Base (Difco) and 1.0% glucose (seed culture). The culture was then diluted with fresh Yeast Nitrogen Base medium to a concentration of 1×10^6 cells/ml. 100 μl of the dilution was dispensed into each well of a 96-well microtiter plate.
10 μl each of solutions of dipropionylcyclopentenone, diisobutyrylcyclopentenone or di-2-hexenoylcyclopentenone in 70% ethanol at a concentration of 100 μg/ml or 500 μg/ml, or 10 μl of 70% ethanol solution was added to the well. The plate was incubated without shaking at 30° C. for 48 hours (main culture).

[3] = tested on: 70-kDa heat shock protein; experiment: Induction of 70-kDa heat shock protein in HL-60 cells (Western blot); format: cell-based; set-up: key to Degree of induction of 70-kDa heat shock protein: − means that no induction was observed; ± means that a slight induction was observed; + represents the induction level; ++: Increased number of + means increased induction; +++: Increased number of + means increased induction; settings: HL-60, 6 hours
Procedure: (1) 5 ml of RPMI 1640 medium containing 10% fetal calf serum and HL-60 (ATCC CCL-240) cells at a concentration of 2×10^5 cells/ml was placed in each well of a 6-well plate. The plate was incubated at 37° C. for 24 hours in the presence of 5% CO2. Dipropionylcyclopentenone, diisobutyrylcyclopentenone or di-2-hexenoylcyclopentenone at a final concentration of 0, 0.63, 1.3, 2.5, 5, 10 or 20 μM was then added thereto. The incubation was continued for additional 6 hours.
After incubation, the cell number was counted. The cells were harvested by centrifugation, washed with PBS to prepare cells treated with one of the samples. Cells that were cultured in the same manner after heated at 45° C. for 10 minutes were also prepared.
These treated cells were used for SDS-PAGE according to the method as described in Molecular Cloning [Cold Spring Harbor Laboratory Press (1989)]. The treated cells were suspended in SDS-PAGE Sample buffer at a concentration of 2.5×10^6 cells/ml. The cell suspensions were treated at 100° C. for 10 minutes. 5 μl each of the cell suspensions was applied to two SDS-PAGE gels (5% stacking gel, 10% separation gel) and electrophoresed. One of the gels was subjected to Coomassie staining. The other gel was blotted onto a polyvinylidene difluoride transfer membrane (Immobilon™, Millipore, Cat. #IPVH000-10). The membrane was blocked at 4° C. overnight using Block Ace (Dainippon Pharmaceutical, Cat. #UK-B25).
The blocked membrane was reacted with a monoclonal antibody HSP72/73(Ab-1) (Oncogene Research Products, Cat. #HSP01), which specifically reacts with heat-inducible 70-kDa heat shock protein. The membrane was washed with TBS containing 0.05% Tween 20 followed by TBS. The membrane was then reacted with a peroxidase-conjugated secondary antibody HRP-Rabbit Anti-Mouse IgG (H+L) (Zymed Laboratories, Inc., Cat. #61-6520), and then washed as described above. The membrane reacted with the primary and secondary antibodies was reacted with a chemiluminol reagent Renaissance™ (Dupont NEN, Cat. #NEL-100). The membrane was then exposed to an X-ray film to confirm the induction of 70-kDa heat shock protein.

[4] = tested on: delayed hypersensitivity pedal edema; experiment: Delayed hypersensitivity (DTH) with sheep erythrocytes; format: in vivo, C57BL/6 mice; settings: once a day for 3 days
Procedure: C57BL/6 mice (male, 7 weeks old, weighing about 25 g) were purchased from Japan SLC and pre-bred for 1 week before using in experiments.
Sheep erythrocytes (Shimizu Laboratory Supplies) as raising antigens were washed three times with saline (Otsuka Pharmaceutical) and suspended in saline at a concentration of 1×10^9 cells/ml. 200 μl of the suspension was intraperitoneally injected into the mouse for sensitization with the antigen. 40 μl of similarly prepared antigen was injected to the sole of right paw 5 days after the sensitization for antigenic induction to induce pedal edema.
Dipropionylcyclopentenone dissolved in saline at a varying concentration was intraperitoneally or orally administered to 5 mice per group once a day for 3 days from the day of sensitization with the antigen. The volume of the right foot of the mouse was measured using an instrument for measuring pedal volume (Ugo Basile) 2 days after the antigenic induction and used as an index of DTH. The measurements were expressed as the rate of increase calculated according to the following equation based on the volume of the right foot of each mouse measured before the antigenic induction.
Rate of increase=(volume of right foot after antigenic induction−volume of right foot before antigenic induction)/volume of right foot before antigenic induction

[5] = tested on: λ-carrageenan pedal edema; experiment: Carrageenan induced pedal edema; format: in vivo, Lewis rats; settings: rat, 3 hours after carrageenan
Procedure: Lewis rats (male, 9 weeks old, weighing about 250 g) were purchased from Seac Yoshitomi.
Rats were fasted from 18 hours before the start of the experiments. Dipropionylcyclopentenone, dihexanoylcyclopentenone, di-2-hexenoylcyclopentenone, diisobutyrylcyclopentenone or dibenzoylcyclopentenone dissolved in olive oil (Nacalai Tesque) was orally administered to 4 rats per group at 1 or 10 mg/10 ml/kg.
100 μl of 1% λ-carrageenan (Wako Pure Chemical Industries) suspension in saline (Otsuka Pharmaceutical) was injected into the sole of right paw of a rat 0.5 hour after the administration of test substance to induce pedal edema. The volume of the right foot of the rat was measured using an instrument for measuring pedal volume (Ugo Basile) 3 hours after the injection with carrageenan. The measurements were expressed as the rate of increase calculated based on the volume of the right foot of each rat measured before the administration with carrageenan.
FIG. 5 illustrate the relationship between the amount of cyclopentenone derivative administered and the rate of increase in edema in foot. The horizontal axis represents the dose […] and the vertical axis represents the rate of increase (%).

Structure (SMILES): CCC(=O)OC1C=CC(=O)C1OC(=O)CC (stereo not shown)
- Inhibition rate [1]: 92.3%
- Mice in which no cancerous tissue was formed [1]: 5 out of 8
- Weight of cancer mean ± SE [1]: 0.05 ± 0.08 g
- Weight of cancer mean ± SE ([1]; listed as dipropionylcyclopentenone): 0.05 g
- Minimum growth inhibitory concentration [2]: 500 µg/mL
- Degree of induction of 70-kDa heat shock protein ([3]; 0.63 μM): −
- Degree of induction of 70-kDa heat shock protein ([3]; 1.3 μM): ±
- Degree of induction of 70-kDa heat shock protein ([3]; 2.5 μM): +
- Degree of induction of 70-kDa heat shock protein ([3]; 5 μM): +++
- Degree of induction of 70-kDa heat shock protein ([3]; 10 μM): ++
- Degree of induction of 70-kDa heat shock protein ([3]; 20 μM): ++
- Suppression of edema in foot, DTH (FIG. 6) ([4]; 1 mg/kg intraperitoneal): Tendency to suppress the edema in the foot
- Suppression of edema in foot, DTH (FIG. 6) ([4]; 10 mg/kg intraperitoneal): significant suppression
- Suppression of edema in foot, DTH (FIG. 6) ([4]; 30 mg/kg oral): significant suppression
- Suppression of edema in foot (FIG. 5) ([5]; 1 mg/kg oral): Tendency to suppress the edema in the foot
- Suppression of edema in foot (FIG. 5) ([5]; 10 mg/kg oral): significant suppression
